Measured values: patent publication US6288122A, “Gardos channel antagonists” (Icagen, Inc., priority 1999, dated 2001)
Values joined by “and” are separate entries in the source; they are usually repeats but may differ in a detail not shown here. Identical values can stand only once. “Also recorded” adds a separate entry of the source. Like-named read-outs stand apart in the source and are kept apart here.

Assays:
IKs [1] = target: T1, IKs (Cavia porcellus, UniProt O70344); assay: Whole cell patch clamp recordings of IKs current in guinea pig myocytes; format: cell-based; conditions: estimated IC50, read-out: Est. IC50 Potency vs. IKs
T1 construct: Recordings of IKs current were made using the whole cell patch clamp methodology on guinea pig myocytes; endogenous in cells; host or cells: guinea pig myocytes (method of Turgeon et al., Circ. Res. 75: 879-86, 1994)

[2] = Pharmacokinetic study in the rat (i.v. and p.o.); format: in vivo, male, Sprague-Dawley rats
Method: Pharmacokinctic studies were conducted in rats to extend the finding that selected fluoro substitution of the phenyl rings increased metabolic stability in vitro to an in vivo study. […] Blood samples were collected at 9 time points from predosing to 24 hours after dosing p.o. and at 11 time points from pre-dosing to 24 hours after i.v. dosing. Samples were prepared and analyzed for compound plasma concentration using LC-MS/MS.

in vitro = conditions: human, microsomes, pH 7.4
Gardos channel [3] = target: T2, Gardos channel (Homo sapiens, UniProt O15554); assay: Inhibition of the Gardos channel in red blood cells (86Rb flux); format: cell-based; conditions: for improvement in potency (Gardos) over non-fluorinated triphenylacetamide 20: vs. compound 20
T2 construct: endogenous in cells; host or cells: red blood cells from heparinized whole blood
Excerpt: The activity of the compounds of the invention towards ion channels, such as the Gardos channel can be assayed utilizing methods known in the art. […] Utilizing the methods described in this reference, both the percent inhibition of the Gardos channel and the IC50 of the compounds of the invention can be assayed.
In an exemplary assay, the inhibition by test compounds of an erythrocyte Gardos channel can be assayed using human red blood cells. The degree of inhibition can be measured using a detectable material such as ^86 Rb. In an exemplary assay, utilizing ^86 Rb, Gardos channel inhibition can be assayed by exposing red blood cells to ^86 Rb and a test compound and measuring the amount of ^86 Rb taken up by the cells. Numerous variations on this assay will be apparent to those of skill in the art.
Briefly, erythrocytes are exposed to a test compound and a ^86 Rb-containing medium. The initial rate of ^86 Rb transport can be calculated from a parameter such as the linear least square slope of ^86 Rb uptake by the cell(s). Inhibitory constants can be calculated by standard methods using computer-assisted nonlinear curve fitting.
Heparinized whole blood was washed three times with Modified Flux Buffer (MFB: 140 mM NaCl; 5 mM KCl; 10 mM Tris; 0.1 mM EGTA; pH=7.4). Washed cells were then incubated for 3 hours with ^86 Rb (5 μCi/mL). After this incubation period, the RBCs were washed three times with cold MFB. Washed ^86 Rb loaded RBCs were then incubated with a test compound of the invention for 10 minutes. ^86 Rb flux was then initiated by the addition of 20 μL/mL of a MFB solution containing 10 mM CaCl2 and 100 μM A23187, a calcium ionophore. This yielded a final concentration of 200 μM CaCl2 and 2 μM A23187 n the incubation medium. Cells were incubated for 10 minutes, spun down and the supernatant was removed. Samples were counted in a Wallace Microbeta liquid scintillation counter by Cerenkov emission. Total RBC ^86 Rb content was determined by lysing the RBCs with water and then precipitating protein using a 50:50 mixture of ethanol:chloroform. After a 20 minute microfuge spin, the aqueous and organic layers separated and the aqueous layer was removed and counted. Efflux is expressed as a percentage of the initial cell content of ^86 Rb.

IKs vs. Gardos = assay: Selectivity for the Gardos channel relative to IKs (ratio of IC50s)
red cell Gardos channel = conditions: oral administration; cited from earlier work
Gardos channel [4] = conditions: oral therapy; cited from earlier work
[5] = tested on: Gardos channel of normal and sickle erythrocytes; conditions: cited from earlier work; for inhibition of Gardos channel / Ca2+-activated K+ flux: in vitro
sickled cells = conditions: combined with a compound which stabilizes the oxyconformation of Hb S; cited from earlier work
IKs [6] = conditions: myocytes; cited from earlier work
[7] = erythrocytes, 86Rb, read-out: IC50 Potency vs. Gardos

T1 sequence (Q60409 whole entry): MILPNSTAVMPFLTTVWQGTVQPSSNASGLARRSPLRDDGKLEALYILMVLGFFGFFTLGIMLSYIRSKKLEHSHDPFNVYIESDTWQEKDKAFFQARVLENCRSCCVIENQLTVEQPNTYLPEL
T1 sequence (O70344 whole entry): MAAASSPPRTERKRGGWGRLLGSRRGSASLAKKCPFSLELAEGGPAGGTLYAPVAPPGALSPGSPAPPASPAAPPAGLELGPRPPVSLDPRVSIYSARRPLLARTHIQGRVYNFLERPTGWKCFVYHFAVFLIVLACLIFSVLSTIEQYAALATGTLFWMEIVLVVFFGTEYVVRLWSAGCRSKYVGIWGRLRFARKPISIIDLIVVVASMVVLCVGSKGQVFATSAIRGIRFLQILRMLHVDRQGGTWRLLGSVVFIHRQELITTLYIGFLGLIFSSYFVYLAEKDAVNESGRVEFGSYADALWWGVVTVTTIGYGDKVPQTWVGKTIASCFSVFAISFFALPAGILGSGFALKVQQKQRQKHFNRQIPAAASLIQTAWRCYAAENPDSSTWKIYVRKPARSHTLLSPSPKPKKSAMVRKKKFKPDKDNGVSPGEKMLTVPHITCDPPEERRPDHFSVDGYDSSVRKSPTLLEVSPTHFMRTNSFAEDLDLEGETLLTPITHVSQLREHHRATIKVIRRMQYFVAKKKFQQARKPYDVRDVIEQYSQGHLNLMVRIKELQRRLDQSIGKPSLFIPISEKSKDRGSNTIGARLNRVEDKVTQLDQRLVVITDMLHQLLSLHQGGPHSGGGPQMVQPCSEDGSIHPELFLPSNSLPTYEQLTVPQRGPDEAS
T2 sequence (O15554 whole entry): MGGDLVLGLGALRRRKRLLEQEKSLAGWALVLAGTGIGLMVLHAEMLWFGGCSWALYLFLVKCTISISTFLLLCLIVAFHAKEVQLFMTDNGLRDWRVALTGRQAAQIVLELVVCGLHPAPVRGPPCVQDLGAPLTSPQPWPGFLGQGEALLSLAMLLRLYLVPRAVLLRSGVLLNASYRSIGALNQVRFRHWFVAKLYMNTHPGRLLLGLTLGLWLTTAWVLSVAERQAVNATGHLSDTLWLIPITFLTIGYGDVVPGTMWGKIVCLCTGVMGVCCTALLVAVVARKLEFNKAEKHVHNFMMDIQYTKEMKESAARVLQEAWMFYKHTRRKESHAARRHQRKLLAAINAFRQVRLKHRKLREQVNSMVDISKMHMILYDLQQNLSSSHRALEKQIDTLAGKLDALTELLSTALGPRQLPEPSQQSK

Row | SMILES | IC50 (IKs [1]) | remaining at 2 h, 5 µM (in vitro) | IC50 (Gardos channel [3]; [7]) | also measured
1 | NC(=O)C(c1ccccc1)(c1ccc(F)cc1)c1ccccc1F (stereo not shown) [Compound 1, (2-fluorophenyl)-(4-fluorophenyl)phenylacetamide] | 2000 nM | 64% |  | oral bioavailability ([2]; 10 mg/kg p.o., 1 mg/kg i.v., rat): 35%
2 | NC(=O)C(c1ccccc1)(c1ccccc1)c1ccccc1F [Compound 2] |  | 80% | 15 nM | improvement in potency (Gardos) over non-fluorinated triphenylacetamide 20 (Gardos channel [3]): 330%
3 | NC(=O)C(c1ccccc1)(c1ccc(F)cc1)c1ccc(F)cc1 [Compound 3, bis(4-fluorophenyl)phenylacetamide] | 1500 nM | 76% |  | bioavailability ([2]; plasma, po, 10 mg/kg p.o., 1 mg/kg i.v., rat): 100%; metabolised at 2 h, 5 µM (in vitro): 24%
4 | NC(=O)C(c1ccccc1)(c1ccccc1)c1ccc(F)cc1 [Compound 4] |  | 80% | 13 nM | 
5 | NC(=O)C(c1ccc(F)cc1)(c1ccc(F)cc1)c1ccccc1F [Compound 5, bis(4-fluorophenyl)-2-fluorophenylacetamide] | 1400 nM | 71% |  | fold more potent than clotrimazole towards the Gardos channel (Gardos channel [3]): ~10 fold; fold more selective for the Gardos channel versus IKs than clotrimazole (IKs vs. Gardos; vs. clotrimazole): ~18 fold and ~17 fold; fold more selective for the Gardos channel than the unsubstituted triphenylacetamide parent 20 (IKs vs. Gardos; vs. compound 20): approximately 6 fold; metabolised at 2 h, 5 µM (in vitro): 29%
6 | NC(=O)C(c1ccccc1)(c1ccccc1)c1c(F)c(F)c(F)c(F)c1F [Compound 6] |  |  | 37 nM | 
7 | NC(=O)C(c1ccccc1)(c1ccccc1)c1ccc(F)c(F)c1 [Compound 7] | 1200 nM | 15% |  | metabolised at 2 h, 5 µM (in vitro): 85%
8 | NC(=O)C(c1ccccc1)(c1ccccc1)c1ccc(F)cc1F [Compound 8] | 5700 nM | 39% | 34 nM | metabolised at 2 h, 5 µM (in vitro): 61%
9 | NC(=O)C(c1ccccc1)(c1ccccc1)c1ccccc1Cl [Compound 18] | 7300 nM | 6% |  | IC50 (Gardos channel [3]): 10 nM; elimination from the bloodstream ([2]; 1 mg/kg i.v., rat): fast; plasma level after oral dosing ([2]; 10 mg/kg p.o., 2 hour post-dose sample): no detectable levels; plasma level after oral dosing ([2]; 10 mg/kg p.o., between 0.25 and 1 hour after dosing): 31 to 65 ng/mL; oral bioavailability ([2]; 10 mg/kg p.o., rat): very poor oral bioavailability
10 | Clc1ccccc1C(c1ccccc1)(c1ccccc1)n1ccnc1 [Compound 19, clotrimazole] |  | 4% |  | effects of oral clotrimazole in SAD-1 mouse (red cell Gardos channel): inhibition of the red cell Gardos channel, increased red cell K^+ content, a decreased mean corpuscular hemoglobin concentration (MCHC) and decreased cell density; effects of oral clotrimazole in patients with sickle cell disease (Gardos channel [4]): induces inhibition of the Gardos channel and reduces erythrocyte ehydration; inhibition of Gardos channel / Ca2+-activated K+ flux [5]: specific, potent inhibitor of the Gardos channel of normal and sickle erythrocytes; also recorded: blocks Ca^2+ -activated K^+ flux and cell dehydration in sickle erythrocytes; clogging rate of a micropore filter (sickled cells): additive reduction in the clogging rate of a micropore filter; interaction with IKs (IKs [6]): interact with the slow component of the delayed rectifier potassium current in myocytes, IKs
11 | Clc1ccc(CCC(Cn2ccnc2)Sc2c(Cl)cccc2Cl)cc1 (stereo not shown) [butoconazole] |  |  |  | sickle cell dehydration [5]: effective at reducing sickle cell dehydration; inhibition of Gardos channel / Ca2+-activated K+ flux [5]: inhibit the Gardos channel in vitro
12 | Clc1ccc(COC(Cn2ccnc2)c2ccc(Cl)cc2Cl)cc1 (stereo not shown) [econazole] |  |  |  | sickle cell dehydration [5]: effective at reducing sickle cell dehydration; inhibition of Gardos channel / Ca2+-activated K+ flux [5]: inhibit the Gardos channel in vitro
13 | Clc1ccc(COC(Cn2ccnc2)c2ccc(Cl)cc2Cl)c(Cl)c1 (stereo not shown) [miconazole] |  |  |  | sickle cell dehydration [5]: effective at reducing sickle cell dehydration; inhibition of Gardos channel / Ca2+-activated K+ flux [5]: inhibit the Gardos channel in vitro

Second part, led by results:

Row | IC50 (IKs [1]) | remaining at 2 h, 5 µM (in vitro) | IC50 (Gardos channel [3]; [7]) | SMILES | also measured
14 | 3200 nM | 3% | 30 nM | NC(=O)C(c1ccccc1)(c1cccc(F)c1)c1cccc(F)c1 [Compound 9] | metabolised at 2 h, 5 µM (in vitro): 97%
15 | 1300 nM | 59% | 12 nM | NC(=O)C(c1ccc(F)cc1)(c1cccc(F)c1)c1cccc(F)c1 [Compound 10] | Selectivity (IKs vs. Gardos) (IKs vs. Gardos; ratio of IC50 towards IKs vs. IC50 towards the Gardos channel): 110
16 | 1300 nM | 78% | 5 nM | NC(=O)[C@@](c1ccccc1)(c1ccc(F)cc1)c1ccccc1F [Compound 11] | increase in potency (Gardos) of 11 over 9 (Gardos channel [3]): 600%
17 | 1800 nM | 44% | 5 nM | NC(=O)[C@](c1ccccc1)(c1ccc(F)cc1)c1ccccc1F [Compound 12] | improvement in potency (Gardos) of 12 over 8 (Gardos channel [3]): ~700%; increase in potency (Gardos) over clotrimazole (Gardos channel [3]): 2000%; improvement in potency (Gardos) over non-fluorinated triphenylacetamide 20 (Gardos channel [3]): 1000%
18 | 1100 nM | 53% |  | NC(=O)C(c1ccc(F)cc1)(c1ccc(F)cc1)c1ccc(F)cc1 [Compound 13] | 
19 |  | 46% |  | NC(=O)C(c1ccccc1)(c1ccccc1F)c1ccccc1F [Compound 14] | 
20 |  | 53% |  | NC(=O)C(c1ccc(F)cc1)(c1ccccc1F)c1ccccc1F [Compound 15] | 
21 | 1900 nM | 57% |  | NC(=O)C(c1ccc(F)cc1)(c1ccc(F)cc1)c1cccc(F)c1 [Compound 16, bis(4-fluorophenyl)-3-fluorophenylacetamide] | 
22 | 4000 nM | 18% |  | NC(=O)C(c1cccc(F)c1)(c1cccc(F)c1)c1cccc(F)c1 [Compound 17] | metabolised at 2 h, 5 µM (in vitro): 82%
23 | 1100 nM | 13% | 50 nM | NC(=O)C(c1ccccc1)(c1ccccc1)c1ccccc1 [Compound 20, reference compound] | metabolised at 2 h, 5 µM (in vitro): 87%
24 | 2600 nM | 35% |  | OC(c1ccccc1)(c1ccccc1)c1ccccc1Cl [Compound 21, reference compound] | IC50 (Gardos channel [3]): 500 nM
25 | 2600 nM | 8% | 100 nM | CNC(=O)C(c1ccccc1)(c1ccccc1)c1ccccc1 [Compound 22, reference compound] | 
